In ChEMBL document CHEMBL1201862, “PubChem BioAssay data set” (2004) one finds IC50, EC50 and AC50 data, which are given here for three compounds.

Active and inactive are the calls of the source.

The term IC50 denotes the concentration that inhibits the measured activity by half. The EC50 is the concentration needed to bring the measured effect to its halfway point. The AC50 is the concentration giving half of the maximal activity seen.

The target of experiment [1] is G-protein coupled receptor 35 (Homo sapiens, UniProt Q9HC97). The experiment can be described thus: inhibition of zaprinast-stimulated GPR35 beta-arrestin translocation – imaging, U2OS, beta-arrestin-GFP, zaprinast agonist, primary screen (AID 2058).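 Further: antagonist potency meaning inhibition of agonist-induced arrestin redistribution.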 The experiment is classed as functional.
G-protein coupled receptor 35, sequence (Q9HC97 whole entry): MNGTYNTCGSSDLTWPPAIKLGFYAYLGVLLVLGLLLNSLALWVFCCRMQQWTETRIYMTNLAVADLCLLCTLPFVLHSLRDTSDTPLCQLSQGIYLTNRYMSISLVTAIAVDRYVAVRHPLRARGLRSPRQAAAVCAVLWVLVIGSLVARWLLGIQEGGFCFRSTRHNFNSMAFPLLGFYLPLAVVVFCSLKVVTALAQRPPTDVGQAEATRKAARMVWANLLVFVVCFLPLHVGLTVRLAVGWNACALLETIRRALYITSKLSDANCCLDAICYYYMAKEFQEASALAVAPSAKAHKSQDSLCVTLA
A short description of experiment [2]: luciferase reporter signal suppression in cells – H4 neuroglioma cells, luminescence, dose response (AID 1990). The experiment is classed as functional, cell-based. (A reporter such as luciferase makes a cellular process visible.)
Experiment [3] relates to BJ. The experiment can be described thus: BJ-TERT fibroblast viability loss – cell-based, RAS-independent, luminescence, dose response (AID 1933). The note with it: Homo sapiens. It is filed as functional.
A short description of experiment [4]: Luminescence Cell-Based Dose Response HTS to Identify Inhibitors of 5'UTR Stem-Loop Driven Prion Protein mRNA Translation in H4 Neuroglioblastoma Cells. [Related pubchem assays: 1827 (Project Summary), 1813 (Primary HTS)]. The experiment is classed as functional.
Experiment [5] in a line: alpha-synuclein stem-loop luciferase translation blockers – H4 neuroglioma cells, luminescence, confirmation (AID 1988). The experiment is classed as functional, cell-based.
For experiment [6], the system named is BJ. The experiment can be described thus: cells. The experiment is classed as functional, cell-based. The conditions noted are these: Homo sapiens.
A short description of experiment [7]: Trypanosoma cruzi growth suppression in host cells – NIH3T3 host cells, beta-gal luminescence, confirmation (AID 2044).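 Further: intracellular parasites grown in NIH/3T3 mouse fibroblasts as host cells; luminescent beta-galactosidase reporter signal from transgenic T. cruzi replicating inside host cells; inhibitors lower the luminescence signal.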 It is filed as functional, cell-based.
Experiment [8] in a line: NIH3T3 cell viability loss – ATP luminescence, mouse fibroblasts, counter-screen, dose response (AID 2010).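 Further: cells exposed to compound for about 90 hours before reading.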 It is filed as functional, cell-based. Background: The purpose of a counterscreen is to sort out artefacts and off-target activity.
Experiment [9] deals with Sphingosine 1-phosphate receptor 4 (Homo sapiens, UniProt O95977). Briefly: Fluorescence dose response cell-based high throughput screening assay for antagonists of the Sphingosine 1-Phosphate Receptor 4 (S1P4). [Related pubchem assays: 1524 (Confirmation in triplicates.), 1510 (Primary screen.)]. It is filed as functional.
Sphingosine 1-phosphate receptor 4, sequence (O95977 whole entry): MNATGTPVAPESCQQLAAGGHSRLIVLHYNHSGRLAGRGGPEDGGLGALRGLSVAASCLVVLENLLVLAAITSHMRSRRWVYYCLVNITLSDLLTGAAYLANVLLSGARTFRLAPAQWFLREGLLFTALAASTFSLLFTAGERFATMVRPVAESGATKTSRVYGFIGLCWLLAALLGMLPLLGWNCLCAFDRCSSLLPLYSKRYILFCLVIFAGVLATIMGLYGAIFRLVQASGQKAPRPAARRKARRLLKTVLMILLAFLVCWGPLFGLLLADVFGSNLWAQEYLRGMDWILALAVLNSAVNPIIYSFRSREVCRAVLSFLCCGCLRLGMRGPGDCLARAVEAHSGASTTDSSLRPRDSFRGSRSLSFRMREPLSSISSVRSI
Experiment [10] deals with BJ. Briefly: BJ-TERT-LT-ST fibroblast viability loss – cell-based, RAS-independent, luminescence, dose response (AID 1935).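 Further: BJ fibroblasts immortalized with TERT plus LT and ST oncogenes.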 It is filed as functional. The conditions noted are these: Homo sapiens.
Experiment [11] can be described thus: DRD fibroblast viability loss – cell-based, non-viral oncogenic, luminescence, dose response (AID 1934). The experiment is classed as functional. The conditions noted are these: Homo sapiens.
Experiment [12] deals with Sphingosine 1-phosphate receptor 1 (Homo sapiens, UniProt P21453). It is filed as functional.
Sphingosine 1-phosphate receptor 1, sequence (P21453 whole entry): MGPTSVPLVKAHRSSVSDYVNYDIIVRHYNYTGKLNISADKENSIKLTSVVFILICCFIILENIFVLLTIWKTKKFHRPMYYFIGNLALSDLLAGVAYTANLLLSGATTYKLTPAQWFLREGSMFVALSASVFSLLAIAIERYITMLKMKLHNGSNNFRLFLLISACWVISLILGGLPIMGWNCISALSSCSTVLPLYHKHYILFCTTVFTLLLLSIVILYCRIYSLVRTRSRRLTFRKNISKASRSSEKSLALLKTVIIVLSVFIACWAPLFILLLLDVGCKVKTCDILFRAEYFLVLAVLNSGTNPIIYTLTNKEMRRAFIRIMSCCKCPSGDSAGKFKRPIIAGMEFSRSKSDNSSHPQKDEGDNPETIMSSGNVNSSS
In experiment [13] the target is G-protein coupled receptor 55 (Homo sapiens, UniProt Q9Y2T6). Briefly: selective activators of receptor GPR55 – imaging, U2OS cells, beta-arrestin-GFP redistribution, primary screen (AID 1961). The experiment is classed as functional.
G-protein coupled receptor 55, sequence (Q9Y2T6 whole entry): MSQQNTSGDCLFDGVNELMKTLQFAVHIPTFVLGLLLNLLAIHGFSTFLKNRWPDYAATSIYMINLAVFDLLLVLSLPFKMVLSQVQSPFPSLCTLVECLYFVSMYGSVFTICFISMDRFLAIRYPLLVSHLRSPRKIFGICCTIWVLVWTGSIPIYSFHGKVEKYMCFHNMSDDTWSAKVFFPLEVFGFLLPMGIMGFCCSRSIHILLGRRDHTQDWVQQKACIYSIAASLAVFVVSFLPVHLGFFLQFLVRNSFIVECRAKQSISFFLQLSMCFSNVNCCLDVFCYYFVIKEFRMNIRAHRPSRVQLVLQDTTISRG
In experiment [14] the target is T1, Microphthalmia-associated transcription factor (Homo sapiens, UniProt O75030).
T1 sequence (O75030 whole entry): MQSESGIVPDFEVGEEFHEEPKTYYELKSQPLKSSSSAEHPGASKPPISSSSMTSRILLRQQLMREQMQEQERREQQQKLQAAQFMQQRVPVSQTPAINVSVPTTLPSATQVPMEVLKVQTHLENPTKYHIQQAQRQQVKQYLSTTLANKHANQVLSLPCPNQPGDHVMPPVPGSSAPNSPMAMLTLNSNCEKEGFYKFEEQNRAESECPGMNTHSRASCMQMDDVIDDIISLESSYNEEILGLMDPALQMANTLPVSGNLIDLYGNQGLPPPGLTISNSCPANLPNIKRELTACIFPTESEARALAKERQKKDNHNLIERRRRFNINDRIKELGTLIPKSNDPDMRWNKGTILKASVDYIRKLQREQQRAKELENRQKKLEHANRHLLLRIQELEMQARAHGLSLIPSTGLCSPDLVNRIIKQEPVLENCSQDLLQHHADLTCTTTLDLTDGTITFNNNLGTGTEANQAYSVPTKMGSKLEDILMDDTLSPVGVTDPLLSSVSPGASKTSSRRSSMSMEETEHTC
The experiment can be described thus: reducers of TRPM1 reporter luminescence, concentration series – cell-based, SK-MEL-5, cherry-picked, set 3, MITF inhibitor project, dose response (AID 493073).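 Further: SK-MEL-5 melanoma cells with luciferase driven by the MITF target TRPM1 promoter.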 The experiment is classed as functional.

Experiment [15] addresses T2, High affinity choline transporter 1 (Homo sapiens, UniProt Q9GZV3).
T2 sequence (Q9GZV3 whole entry): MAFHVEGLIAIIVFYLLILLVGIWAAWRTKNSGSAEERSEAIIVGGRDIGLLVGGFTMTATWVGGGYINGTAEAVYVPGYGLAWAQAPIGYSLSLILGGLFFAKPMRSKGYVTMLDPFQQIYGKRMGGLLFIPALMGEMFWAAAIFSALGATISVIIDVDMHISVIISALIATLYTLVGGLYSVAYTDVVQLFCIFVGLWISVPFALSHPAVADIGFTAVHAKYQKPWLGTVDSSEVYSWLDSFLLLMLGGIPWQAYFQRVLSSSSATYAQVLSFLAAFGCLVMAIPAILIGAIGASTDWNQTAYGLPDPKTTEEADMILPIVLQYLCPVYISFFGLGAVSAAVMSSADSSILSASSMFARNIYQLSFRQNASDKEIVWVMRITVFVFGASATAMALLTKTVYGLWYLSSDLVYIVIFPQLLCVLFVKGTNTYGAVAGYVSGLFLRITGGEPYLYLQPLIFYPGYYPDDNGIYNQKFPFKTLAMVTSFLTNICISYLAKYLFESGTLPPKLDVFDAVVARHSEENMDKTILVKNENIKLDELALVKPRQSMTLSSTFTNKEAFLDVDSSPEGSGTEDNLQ
The experiment can be described thus: human choline transporter blockers, potency – cell-based, 5-point CRC, membrane potential dye, dose response (AID 504840). It is filed as functional.

The subject of the next experiment is INS1. The experiment can be described thus: INS-1E survival protection against cytokine death – cell-based, luminescence, retest, dose response (AID 449756).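 Further: cell death triggered by IL-1 beta plus TNF-alpha plus IFN-gamma mixture; protective hits raise ATP signal compared with cytokine alone wells.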 It is filed as functional. The conditions noted are these: Rattus norvegicus.
In experiment [16] the target is T2, High affinity choline transporter 1. Briefly: human choline transporter blockers, potency – cell-based, 10-point CRC, membrane potential dye, dose response (AID 588401).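 Further: membrane potential dye fluorescence of choline-evoked depolarization via CHT.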 The experiment is classed as functional.
The subject of the next experiment is A-375. The experiment can be described thus: proliferation inhibition in MITF-low A375 cells – cell-based, cherry-pick samples, set 2, counter-screen for MITF modulator project, dose response (AID 540335). It is filed as functional. The note with it: Homo sapiens.
The nature of experiment [17]: reduction of Shn3 3'UTR-driven luciferase in osteoblasts – cell-based, Clone20 osteoblasts, firefly luciferase, cherry-picked, dose response (AID 624132).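 Further: firefly luciferase luminescence from reporter carrying the Shn3 3'UTR in osteoblasts.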 It is filed as functional.
A short description of experiment [18]: loss of viability in HepG2 cells – cell-based, CellTiter-Glo, cherry-picked, cytotoxicity control for Shn3 inhibitor project, dose response (AID 624134). It is filed as functional. A general note: ATP-based viability assays read luminescence as a measure of living cells.
Experiment [19] can be described thus: non-specific 3'UTR reporter inhibition in Clone20-Shn3RL – cell-based, Renilla luciferase, cherry-picked, counter-screen for Shn3 inhibitor project, dose response (AID 624133). The experiment is classed as functional.
For experiment [20], the target named is T3, Neuropeptides B/W receptor type 1 (Homo sapiens, UniProt P48145). Briefly: human NPBW1 receptor blockade, IC50 – cell-based, fluorescence, dose response, set 5, late-stage follow-up (AID 588566). It is filed as functional.
T3 sequence (P48145 whole entry): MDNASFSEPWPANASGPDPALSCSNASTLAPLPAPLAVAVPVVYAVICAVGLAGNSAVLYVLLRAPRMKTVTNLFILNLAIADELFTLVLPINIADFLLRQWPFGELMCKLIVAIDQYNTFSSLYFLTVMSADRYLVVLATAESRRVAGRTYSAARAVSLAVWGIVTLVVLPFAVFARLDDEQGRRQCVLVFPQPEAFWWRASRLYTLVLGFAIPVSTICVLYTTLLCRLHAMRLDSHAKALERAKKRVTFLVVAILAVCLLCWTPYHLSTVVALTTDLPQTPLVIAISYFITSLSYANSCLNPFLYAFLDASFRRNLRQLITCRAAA
Experiment [21] addresses T4, Melanin-concentrating hormone receptor 1 (Homo sapiens, UniProt Q99705). Briefly: Late-stage fluorescence-based counterscreen for antagonists of the G-protein coupled receptor 7 (GPR7): cell-based dose response assay to identify antagonists of the melanin-concentrating hormone receptor 1 (MCHR1) Set 5. The experiment is classed as functional.
For experiment [22], the target named is T4, Melanin-concentrating hormone receptor 1. Briefly: Late-stage fluorescence-based counterscreen for antagonists of the G-protein coupled receptor 7 (GPR7): cell-based dose response assay to identify antagonists of the melanin-concentrating hormone receptor 1 (MCHR1) Set 6. It is filed as functional.
Experiment [23] concerns the target T3, Neuropeptides B/W receptor type 1. Briefly: human NPBW1 receptor blockade, IC50 – cell-based, fluorescence, dose response, set 6, late-stage follow-up (AID 588583). The experiment is classed as functional.

T4 sequence (Q99705 whole entry): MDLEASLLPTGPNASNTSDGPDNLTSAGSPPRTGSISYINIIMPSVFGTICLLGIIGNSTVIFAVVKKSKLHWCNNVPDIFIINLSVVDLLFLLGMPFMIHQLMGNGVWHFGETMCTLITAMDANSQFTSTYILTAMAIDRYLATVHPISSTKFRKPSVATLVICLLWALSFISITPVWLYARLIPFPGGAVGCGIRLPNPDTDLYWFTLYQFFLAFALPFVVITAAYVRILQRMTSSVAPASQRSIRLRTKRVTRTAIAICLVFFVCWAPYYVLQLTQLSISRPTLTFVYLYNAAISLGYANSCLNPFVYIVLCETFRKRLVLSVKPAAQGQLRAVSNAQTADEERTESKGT

With `CC1=CC2/C=C(\C)CCC(O)C(O)/C=C/C(=O)C23C(=O)NC(CC(C)C)C3C1C` (stereo not given), the IC50 in experiment [1] was 3.06 µM (active); in experiment [9], 0.648 µM (active); in experiment [12], 17.6 µM (not active); in experiment [15], 4.38 µM (active); in experiment [16], 3.16 µM (active). In addition, the concentration giving a half-maximal response (EC50) in experiment [2] is > 120 µM (not active); in the experiment with BJ [3], 4.94 µM (active); in [4], 8.86 µM (active); in experiment [5] it was 9.67 µM (active); in the experiment on BJ [6], 6.51 µM (active); in experiment [7], 4.09 µM (active). The EC50 in experiment [8] was 4.73 µM (active); with BJ [10], 4.8 µM (inconclusive); in experiment [11], 4.94 µM (inconclusive); in [13] it was > 32 µM (inactive). Also, the AC50 is 6.58 µM (active) in experiment [14]; 6.6 µM (active) with INS1; 10.4 µM (active) in the experiment on A-375; 5.29 µM (active) in experiment [17]; 8.15 µM (active) in experiment [18]; 6.91 µM (active) in experiment [19].

`CCOC(=O)C(c1ccccn1)c1c(Cl)cnn(Cc2cccc3ccccc23)c1=O` (stereo not given): the IC50 was > 20 µM (inactive) in experiment [20] and 17.6 µM (inactive) in experiment [21].

Take `N#CC(Cc1ccccc1)c1c(Cl)cnn(Cc2cccc3ccccc23)c1=O` (stereo not given): the IC50 in experiment [22] and in experiment [23] was ~2.06 µM (active) each time.
